Test results from US9012422B2, “Method of treating acute myelogenous leukemia” (Wake Forest University Health Sciences, priority 2011, dated 2015).
Like-named read-outs stand apart in the source and are kept apart here.

Key:
K562 cells [1] = experiment: Cell Titer-Glo viability (cytotoxicity) assay, K562; format: cell-based, human; conditions: 72 hours exposure
Source text: (§1) We chose to use doxorubicin as the anthracycline as it is the best tolerated anthracycline in C57/Bl6 mice^11 and would allow for comparisons between in vivo and in vitro studies.

[2] = test system: murine AML cells expressing the p53 shRNA; conditions: 48 hours
Description: (B) Flow cytometry of Annexin V assay. Cells expressing the p53 short hairpin RNA (shRNA) were exposed to the indicated drug for 48 hours and then labeled with Annexin V and propidium iodide (PI).
(§8) Cells were seeded in 6-well plates at 25,000 cells/ml in 3 mls, grown for 2 days and treated with the indicated drug for 16, 24, 36, or 48 hours. After centrifugation and washing in cold PBS cells were stained with PI (Sigma Aldrich, St. Louis, Mo.) and APC-conjugated Annexin V in a binding buffer (0.1 M Hepes (pH 7.4), 1.4 M NaCl, and 25 mM CaCl2 solution) (BD Pharmingen, San Jose, Calif.) according to the manufacturer's protocol. Flow cytometric analysis was conducted on a BD FACS Cantoll cytometer with the BD FACSDiva software (BD Biosciences, San Jose, Calif.).

K562 cells [3] = conditions: 24 hours
Description: (A) Immuno-fluorescence for gamma histone H2AX (γH2AX) foci. K562 cells were treated with the indicated drug for 24 hours and then assayed for the presence of γH2AX foci. Secondary antibody was conjugated with Alexa Fluor 594 and Images were captured with an Olympus IX70 inverted fluorescent microscope equipped with a Retiga 2000R digital color camera and using an LPIanFI 20×/0.40 objective. Images were analyzed with Image Pro Plus 5.1 software.
For immunofluorescence studies of phosphorylated γH2AX, cells were fixed with 4% NBF, permeabilized with PBS containing 0.2% Triton-X 100, and probed with anti-phosphoH2AX (#2577, 1:100; Cell Signalling Technologies) followed by donkey anti-rabbit Alexa Fluor 594 conjugated antibody (1:500, A-21207; Invitrogen) and visualized via fluorescence microscopy.

[4] = test system: MR2 cells (MLL-ENL + NRasG12D); conditions: read-out: IC50 MR2
Description: (§9) Cells were grown at 37° C. with 5% CO2. Viability assays were done using the Cell Titer-Glo assay (Promega, Madison, Wis.) according to the manufacturer's protocol. All murine cells were derived from fetal liver cells infected with MLL-ENL alone or with a mutation of glycine at amino acid 12 to aspartate of NRAS (NRAS^G12D) or FLT3-ITD expressing vectors^10. Murine cells were maintained in stem cell media (40% DMEM, 40% IMDM, 20% FBS, supplemented with murine SCF to 10 ng/ml, murine IL6 to 2 ng/ml, and murine IL3 to 0.4 ng/ml).

[5] = test system: MFL2 cells (MLL-ENL + Flt3 ITD); conditions: read-out: IC50 MFL2
Description: as §9

[6] = test system: human LSCs (K562 and HL60 cells, three primary patient samples); conditions: 24 hours drug, colonies read on or after day 7
Description: (A) Colony formation assays. Primary patient samples or cell lines were incubated with the indicated drug for 24 hours and placed in methylcellulose media. Plates were read on or after day 7. All concentrations were done in triplicate. Primary AML is the combined results of three independent primary patient samples. Colony numbers are normalized to controls and error bars represent the standard error.

[7] = test system: MLL-ENL- and FLT3 ITD-expressing cell line with p53-targeting shRNA; experiment: Cytotoxicity assay of murine AML cells with p53 knockdown; conditions: p53 shRNA vs control vector, 72 hours
Description: (A) Cytotoxicity assays of murine AML cells that knockdown p53. Cells were exposed to the indicated drugs for 72 hours and then assessed for viability. Viability is shown as percentage of control; error bars represent the standard error.
Viability assays were done using the Cell Titer-Glo assay (Promega, Madison, Wis.) according to the manufacturer's protocol. All murine cells were derived from fetal liver cells infected with MLL-ENL alone or with a mutation of glycine at amino acid 12 to aspartate of NRAS (NRAS^G12D) or FLT3-ITD expressing vectors^10. Murine cells were maintained in stem cell media (40% DMEM, 40% IMDM, 20% FBS, supplemented with murine SCF to 10 ng/ml, murine IL6 to 2 ng/ml, and murine IL3 to 0.4 ng/ml).

M1 cells (MLL-ENL alone) [8] = conditions: read-out: IC50 M1
[9] = test system: MFL2 cell line (MLL-ENL and FLT3 ITD) leukemia in C57/Bl6 mice; conditions: for survival compared to controls: 5-FU 121 mg/kg
Source text: FIG. 6. […] A) Schema of treatment trial. C57/Bl6 mice were sublethally irradiated to 4.5 Gy and injected with an MLL-ENL and Fms-like tyrosine kinase 3 internal tandem duplication (FLT3-ITD) syngeneic leukemia. […] (B) Bioluminescent image of mice on day 6 following treatment. (C) Kaplan-Meier curves for animals treated with Fd, 5-FU or AD as above.
(§2) The Wake Forest University Institutional Animal Care and Use Committee approved all mouse experiments. Luciferase-tagged leukemia cells were transplanted into 6- to 8-wk-old sublethally irradiated recipient mice (4.5 Gy) by tail-vein injection of 1×10^6 viable cells. Mice were monitored by bioluminescent imaging on day 7. Imaging was performed using an IVIS100 imaging system (Caliper LifeSciences, Hopkinton, Mass.). Mice were injected with 150 mg/kg D-Luciferin (Gold Biotechnology, St. Louis, Mo.), anesthetized with isoflurane, and imaged for 2 min. Chemotherapy was initiated upon detection of clear signals. […] Control animals were injected with PBS. Repeat luciferase imaging was performed on day 6 of treatment.
(§3) Recent studies have shown that the bone marrow microenvironment can have a profound effect on chemotherapy response in AML^24. Additionally, the immune system can affect the degree of response to a given therapy in vivo^25. […] This cell line express MLL-ENL and the mutated oncogene, NRas^G12D in conjunction with a luciferase reporter. […] This cell line expresses the FLT3 receptor with an internal tandem duplication (FLT3 ITD) in place of NRas^G12D. […] (300 mg/kg), 5-FU (121 mg/kg) or Ara-C (125 mg/kg) plus doxorubicin (3.75 mg/kg) on days 1, 3, 5, and 7 (FIG. 1A).

Jurkat cells = experiment: Cell Titer-Glo viability (cytotoxicity) assay, Jurkat; format: cell-based, human; conditions: 72 hours exposure
Source text: as §1

THP-1 cells = experiment: Cell Titer-Glo viability (cytotoxicity) assay, THP-1; format: cell-based, human; conditions: 72 hours exposure
Source text: as §1

OCI-AML3 cells = experiment: Cell Titer-Glo viability (cytotoxicity) assay, OCI-AML3; format: cell-based, human; conditions: 72 hours exposure
Source text: as §1

THP-1 and HL60 cells = conditions: 48 hours
Description: (B) Flow cytometry of Annexin V assay. THP-1 or HL60 cells were treated with the indicated drug for 48 hours and then labeled with Annexin V and propidium iodide (PI) and analyzed by flow cytometry.
as §8

murine AML cell lines = conditions: 24 hours
Description: FIG. 11. […] (A) Flow cytometry results of Annexin V assays. The indicated MLL-ENL driven leukemia cells were treated with drug for 24 hours analyzed by flow cytometry, as in FIG. 5. (B) MLL-ENL and neuroblastoma RAS viral oncogene homolog (NRAS) containing AML cells were exposed to the indicated drug for 24 hours and analyzed as in (A).

[10] = test system: MLL-ENL driven murine AML cells
Description: FIG. 4. […] (A) EdU incorporation assays. MLL-ENL driven murine AML cells were incubated with the indicated drug for 8 hours and subjected to a 5-ethynl-2′ deoxyuridine (EdU) incorporation assay. S phase cells were gated as shown. Percentages shown are for cells in S phase. (B) EdU incorporation assay as in (A). Cells were infected with either a p53 targeting shRNA or a control vector and exposed to the indicated drug for 8 hours.

[11] = biological target: topoisomerase I cleavage complexes (Top1CC) in THP-1, Jurkat and HL60 cells (Homo sapiens, UniProt P11387); experiment: ICE bioassay / Top1 cleavage complex detection; conditions: 100 nM, 24 or 48 hours
Description: (B) ICE bioassay for Top1 cleavage complexes. […] Cells were lysed and subjected to ICE bioassay (see methods), and DNA-containing fractions were blotted for Topo I. (C) Results of TS and Top1 Western blots.
Cells were plated at 1.5×10^6 cells in 100 mm^2 plates and grown in RPMI 1640 medium with 20% FBS. […] Cells were lysed in 2 ml of 1% sarkosyl in 1×TE pH 7.5 and frozen at −20° C. Samples were homogenized approximately 25 times. Addition of 1 ml of sarkosyl was used to wash the homogenizer. CsCl gradients were made as in^9. The samples were overlaid and ultracentrifuged in a SW41T rotor. Centrifugation was at 36K for 20-22 hours at 20° C. 500 ml fractions were collected. Fractions 6 through 11 were used for analysis. 200 ul of each fraction and an equal volume of 25 mM NaPO4 buffer (pH 6.5) were loaded onto a nitrocellulose membrane using a Schleicher and Schuell Minifold II slot blotter. The membrane was blocked with 5% milk in TBST. Primary antibody was added at 1:500 dilution, overnight at 4° C. Secondary antibody was used in the same manner. ECL Lightning Plus (Perkin Elmer) was used for detection of the TOP1 cleavage complex.

HL60 cells = experiment: Cell Titer-Glo viability (cytotoxicity) assay, HL60; format: cell-based, human; conditions: 72 hours exposure
Source text: as §1

[12] = test system: MR2 cell line (MLL-ENL and NRasG12D) leukemia in C57/Bl6 mice
Source text: FIG. 12. […] C57/Bl6 mice were sublethally irradiated to 4.5 Gy and injected with an MLL-ENL and NRAS syngeneic leukemia. […] P value was obtained by log rank test. […] P value was obtained by log rank test.
as §2, §3

KG1a cells = experiment: Cell Titer-Glo viability (cytotoxicity) assay, KG1a; format: cell-based, human; conditions: 72 hours exposure
Source text: as §1

[13] = test system: murine AML cells expressing p210 BCR-ABL; experiment: Cytotoxicity assay of murine AML cells expressing p210 BCR-ABL; format: cell-based; conditions: 72 hours
Source text: (§4) FIG. 1. […] (B) Flow cytometry of Annexin V assay.
(§5) In addition to p53 loss, several other adverse prognostic factors are expressed in the cell lines tested. K562 cells express the fusion gene BCR-ABL that has been implicated in chemotherapy resistance^17 and prognosis in AML^18. THP-1 cells express high levels of MN1^18, shown to confer an adverse prognosis^20-21.

[14] = test system: MR2 cells (MLL-ENL + NRasG12D); experiment: cells; conditions: Mus musculus, read-out: IC50 MR2
Description: as §9

M1 cells (MLL-ENL alone) [15] = experiment: cells; conditions: Mus musculus, read-out: IC50 M1
Description: as §9

[16] = test system: murine AML cells expressing human MN1; experiment: Cytotoxicity assay of murine AML cells expressing MN1; format: cell-based; conditions: 72 hours
Source text: as §4, §5

[17] = test system: MFL2 cells (MLL-ENL + Flt3 ITD); experiment: cells; conditions: Mus musculus, read-out: IC50 MFL2
Description: as §9

thymidylate synthase = biological target: T1, thymidylate synthase (Homo sapiens, UniProt P04818); experiment: TS catalytic activity in treated HL60 cells; format: cell-based; conditions: 100 nM 5-FU
T1 construct: endogenous in cells; host or cells: HL60

normal murine HSCs = conditions: mouse, in vivo
Description: (§6) FIG. 7. […] Mice were treated in the same manner as the in FIG. 6; sacrificed 72 hours after the last dose; and organs were harvested, fixed, paraffin-embedded, sectioned, and stained. Slides were imaged using a Nikon Eclipse 50i light microscope, magnification as indicated. Photographs of tissues were taken using the NIS Elements D3.10 camera and software system. (B) Bone marrow transplant. […] Ly5.1+C57/Bl6 recipient mice were irradiated to 8 gray and injected with donor cells. After three weeks recipients were harvested and degree of femur engraftment by donor cells was determined by staining with Ly5.2 antibody and analyzed by flow cytometry.
(§7) Normal C57/Bl6 mice were treated with identical dose, schedule and route of each drug as in the efficacy studies (i.e. Day 1, 3, 5 and 7). 72 hours after the last dose, animals were sacrificed, bilateral femoral cells harvested and organs fixed in 10% neutral buffered formalin followed by routine tissue processing and sectioning for hematoxylin and eosin staining. Slides were then reviewed by a veterinary pathologist using a Nikon Eclipse 50i light microscope. Photographs of tissues were taken using the NIS Elements D3.10 camera and software system. […] Three weeks later recipient femoral bone marrow was harvested and stained with APC-conjugated anti-Ly5.2 antibody (BD Pharmingen, San Diego, Calif.) and analyzed by flow cytometry. […]

normal C57/Bl6 mice = experiment: Toxicology study, histopathology; format: in vivo, mouse; conditions: dosed days 1, 3, 5, 7; sacrificed three days after last treatment
Description: as §6, §7

[18] = days 1, 3, 5 and 7, FdUMP[10] 300 mg/kg

T1 sequence (P04818 2-313 limits assumed): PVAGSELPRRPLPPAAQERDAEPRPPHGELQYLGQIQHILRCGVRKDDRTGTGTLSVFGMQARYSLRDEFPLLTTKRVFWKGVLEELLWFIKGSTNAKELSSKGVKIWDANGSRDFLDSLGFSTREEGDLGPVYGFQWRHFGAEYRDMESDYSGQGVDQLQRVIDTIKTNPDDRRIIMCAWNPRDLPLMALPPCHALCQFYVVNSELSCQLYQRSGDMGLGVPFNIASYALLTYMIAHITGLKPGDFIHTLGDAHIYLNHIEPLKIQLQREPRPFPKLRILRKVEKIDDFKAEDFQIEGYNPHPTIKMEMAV
topoisomerase I cleavage complexes (Top1CC) in THP-1, Jurkat and HL60 cells, sequence (P11387 2-765 limits assumed, one chain of several): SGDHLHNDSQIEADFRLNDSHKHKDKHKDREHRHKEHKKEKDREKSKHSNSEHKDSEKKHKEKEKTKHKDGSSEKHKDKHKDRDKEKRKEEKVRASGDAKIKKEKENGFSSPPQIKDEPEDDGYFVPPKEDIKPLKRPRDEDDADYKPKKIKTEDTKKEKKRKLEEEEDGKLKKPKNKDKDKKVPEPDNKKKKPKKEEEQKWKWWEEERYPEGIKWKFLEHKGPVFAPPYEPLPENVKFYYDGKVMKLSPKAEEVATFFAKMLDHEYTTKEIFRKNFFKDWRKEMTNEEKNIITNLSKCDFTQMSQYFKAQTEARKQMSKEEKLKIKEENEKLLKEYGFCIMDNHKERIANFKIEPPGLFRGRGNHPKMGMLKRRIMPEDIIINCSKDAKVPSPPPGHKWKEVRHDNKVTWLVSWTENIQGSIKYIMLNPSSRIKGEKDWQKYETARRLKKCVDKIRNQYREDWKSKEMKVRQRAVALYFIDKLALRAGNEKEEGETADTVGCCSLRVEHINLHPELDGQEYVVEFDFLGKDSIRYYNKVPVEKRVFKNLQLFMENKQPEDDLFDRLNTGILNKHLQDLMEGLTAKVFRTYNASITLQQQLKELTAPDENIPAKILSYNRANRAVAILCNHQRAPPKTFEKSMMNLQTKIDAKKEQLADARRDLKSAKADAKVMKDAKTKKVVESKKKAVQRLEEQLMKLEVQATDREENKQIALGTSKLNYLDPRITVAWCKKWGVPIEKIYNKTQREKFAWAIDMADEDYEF

## 10-mer oligonucleotide of 5-fluorodeoxyuridine [FdUMP[10]]
K562 cells [1]
  IC50: 0.0215 µM
[2]
  Annexin V binding in p53-suppressing cells: positive for Annexin V binding
K562 cells [3]; 10 or 100 nM
  γH2AX foci (DNA DSBs): formation of multiple γH2AX foci
[4]
  IC50: 0.000124 µM
[5]
  IC50: 0.000131 µM
[6]
  suppression of colony formation, cell lines and primary patient samples: highly effective in suppressing colony formation
[7]
  change in response (viability) on loss of p53 response: no change observed
M1 cells (MLL-ENL alone) [8]
  IC50: 0.000124 µM
[9]; Ara-C 125 mg/kg plus doxorubicin 3.75 mg/kg, days 1, 3, 5, 7
  survival compared to Ara/Dox treated animals: no difference in survival
[9]; [18]
  disease burden (bioluminescent imaging): reduced disease burden
  survival compared to controls: improved survival
Jurkat cells
  IC50: 0.0054 µM
THP-1 cells
  IC50: 0.0041 µM
OCI-AML3 cells
  IC50: 0.0055 µM
THP-1 and HL60 cells; 10 or 100 nM
  apoptosis by Annexin V and propidium iodide staining: a majority of cells were stained positive
Murine AML cell lines
  apoptosis induction in murine AML cell lines: efficiently induced apoptosis
[10]; 8 hours exposure
  S-phase arrest in cells expressing a p53 targeting shRNA: efficiently arrested in S-phase
[10]; eight hours exposure
  accumulation of cells in S-phase: cells accumulated in S-phase
[11]
  trapped Top1 cleavage complexes: Top1 was detected co-migrating with genomic DNA
HL60 cells
  IC50: 0.0034 µM
[12]; 300 mg/kg every other day for four doses
  survival: significant survival benefit
[12]; 300 mg/kg on days 1 and 4
  disease burden (bioluminescence): reduction in disease burden
  survival vs untreated controls: statistically significant survival benefit
KG1a cells
  IC50: 0.0049 µM

## COc1cccc2c1C(=O)c1c(O)c3c(c(O)c1C2=O)C[C@@](O)(C(=O)CO)C[C@@H]3O[C@H]1C[C@H](N)[C@H](O)[C@H](C)O1 [Doxorubicin, doxorubicin]
[13]
  fold change of IC50 vs parental leukemia cells, p210 BCR-ABL: 2.95 fold
K562 cells [1]; Homo sapiens, K562
  IC50: 0.253 µM
[7]
  change in response (viability) on loss of p53 response: resistance
[14]
  IC50: 0.0114 µM
Jurkat cells; Homo sapiens, Jurkat
  IC50: 0.0752 µM
THP-1 cells; Homo sapiens, THP-1
  IC50: 0.161 µM
M1 cells (MLL-ENL alone) [15]
  IC50: 0.0037 µM
HL60 cells; Homo sapiens, HL-60
  IC50: 0.0217 µM
[16]
  fold change of IC50 vs parental leukemia cells, MN1: > 10 fold
[17]
  IC50: 0.0246 µM
KG1a cells; Homo sapiens, KG-1a
  IC50: 1.3 µM

## O=c1[nH]cc(F)c(=O)[nH]1 [5-FU, 5-fluorouracil]
K562 cells [1]; Homo sapiens, K562
  IC50: 7 µM
Thymidylate synthase
  TS inhibition: did not significantly inhibit TS
K562 cells [3]; 1 μM
  γH2AX foci (DNA DSBs): did not result in the formation of γH2AX foci
[14]
  IC50: 0.214 µM
[9]; 5-FU 121 mg/kg days 1, 3, 5, 7
  deaths on treatment: early deaths
[9]; [18]
  survival compared to controls: no survival benefit over controls
Jurkat cells; Homo sapiens, Jurkat
  IC50: 7.5 µM
THP-1 cells; Homo sapiens, THP-1
  IC50: 1.2 µM
THP-1 and HL60 cells; 100 nM 5-FU
  apoptosis by Annexin V staining: only minimal annexin V positive cells
[10]; eight hours, 5-FU at 100 times the FdUMP[10] concentration
  accumulation of cells in S-phase: essentially no difference in the number of cells in S-phase from control
Normal murine HSCs
  engraftment of femur cells from treated donors in irradiated recipients: only minimal engraftment
HL60 cells; Homo sapiens, HL-60
  IC50: 5 µM
[17]
  IC50: 0.292 µM
KG1a cells; Homo sapiens, KG-1a
  IC50: 5.3 µM
Normal C57/Bl6 mice
  GI-tract histopathology (small and large intestine): severe villous blunting and fusion with crypt necrosis
  bone marrow histopathology: severe pancytopenia

## Nc1ccn([C@@H]2O[C@H](CO)[C@@H](O)[C@@H]2O)c(=O)n1 [Cytarabine, cytarabine]
K562 cells [1]; Homo sapiens, K562
  IC50: 0.0837 µM
[14]
  IC50: 0.0718 µM
Jurkat cells; Homo sapiens, Jurkat
  IC50: 0.0155 µM
THP-1 cells; Homo sapiens, THP-1
  IC50: 6.7 µM
OCI-AML3 cells; Homo sapiens, OCI-AML-3
  IC50: 0.134 µM
M1 cells (MLL-ENL alone) [15]
  IC50: 0.0468 µM
HL60 cells; Homo sapiens, HL-60
  IC50: 0.145 µM
[17]
  IC50: 0.0544 µM
KG1a cells; Homo sapiens, KG-1a
  IC50: 0.196 µM
